Patent publication US12187723B2 (BRISTOL-MYERS SQUIBB COMPANY, priority 2019, dated 2025)

Experiments:
Assay type in all cases: cell-based
human TLR7 = biological target: T1, human TLR7 (Homo sapiens, UniProt Q9NYK1); test: TLR7 inhibition reporter assay (HEK-Blue SEAP); details: HEK-Blue cells overexpressing human TLR7, gardiquimod 7.5 μM, 22 hour incubation
T1 construct: host or cells: HEK-Blue cells
T1 sequence (Q9NYK1 27-1049): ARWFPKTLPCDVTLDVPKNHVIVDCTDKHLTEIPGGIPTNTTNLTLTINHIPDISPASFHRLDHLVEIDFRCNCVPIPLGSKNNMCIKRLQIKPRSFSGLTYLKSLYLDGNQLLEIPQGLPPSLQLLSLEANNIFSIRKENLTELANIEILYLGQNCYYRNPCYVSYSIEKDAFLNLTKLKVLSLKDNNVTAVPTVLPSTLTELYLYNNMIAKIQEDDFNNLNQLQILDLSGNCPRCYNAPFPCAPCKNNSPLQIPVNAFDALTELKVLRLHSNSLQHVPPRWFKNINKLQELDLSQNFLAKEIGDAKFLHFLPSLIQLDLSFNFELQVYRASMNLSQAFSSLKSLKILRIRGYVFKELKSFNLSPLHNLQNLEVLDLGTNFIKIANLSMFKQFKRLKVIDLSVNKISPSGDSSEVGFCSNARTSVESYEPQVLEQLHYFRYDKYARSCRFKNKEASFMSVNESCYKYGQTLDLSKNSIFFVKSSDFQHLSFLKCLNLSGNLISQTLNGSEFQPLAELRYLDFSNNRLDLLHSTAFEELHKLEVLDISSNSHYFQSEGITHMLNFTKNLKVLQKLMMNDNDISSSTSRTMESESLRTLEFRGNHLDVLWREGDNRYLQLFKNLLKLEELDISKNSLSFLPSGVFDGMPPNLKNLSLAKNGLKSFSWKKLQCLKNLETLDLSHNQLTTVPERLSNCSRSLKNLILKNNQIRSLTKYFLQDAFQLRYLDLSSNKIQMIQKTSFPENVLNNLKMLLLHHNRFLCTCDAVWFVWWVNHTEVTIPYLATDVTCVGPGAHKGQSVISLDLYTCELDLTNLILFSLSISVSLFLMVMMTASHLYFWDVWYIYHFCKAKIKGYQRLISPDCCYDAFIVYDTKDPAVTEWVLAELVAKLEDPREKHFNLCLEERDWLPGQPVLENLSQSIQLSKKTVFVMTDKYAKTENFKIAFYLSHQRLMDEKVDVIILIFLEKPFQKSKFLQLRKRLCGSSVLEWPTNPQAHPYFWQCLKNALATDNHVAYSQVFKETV
Experimental: (§1) TLR7/8/9 Inhibition Reporter Assays
Briefly, cells are seeded into Greiner 384 well plates (15000 cells per well for TLR7, 20,000 for TLR8 and 25,000 for TLR9) and then treated with test compounds in DMSO to yield a final dose response concentration range of 0.05 nM-50 μM. […] After a 22 hour incubation at 37° C., 5% CO2, SEAP levels are determined with the addition of HEK-Blue™ Detection reagent (Invivogen), a cell culture medium that allows for detection of SEAP, according to manufacturer's specifications. The percent inhibition is determined as the % reduction in the HEK-Blue signal present in wells treated with agonist plus DMSO alone compared to wells treated with a known inhibitor.

human TLR8 = biological target: T2, human TLR8 (Homo sapiens, UniProt Q9NR97); test: TLR8 inhibition reporter assay (HEK-Blue SEAP); details: HEK-Blue cells overexpressing human TLR8, R848 15.9 μM, 22 hour incubation
T2 construct: host or cells: HEK-Blue cells
T2 sequence (Q9NR97 27-1041): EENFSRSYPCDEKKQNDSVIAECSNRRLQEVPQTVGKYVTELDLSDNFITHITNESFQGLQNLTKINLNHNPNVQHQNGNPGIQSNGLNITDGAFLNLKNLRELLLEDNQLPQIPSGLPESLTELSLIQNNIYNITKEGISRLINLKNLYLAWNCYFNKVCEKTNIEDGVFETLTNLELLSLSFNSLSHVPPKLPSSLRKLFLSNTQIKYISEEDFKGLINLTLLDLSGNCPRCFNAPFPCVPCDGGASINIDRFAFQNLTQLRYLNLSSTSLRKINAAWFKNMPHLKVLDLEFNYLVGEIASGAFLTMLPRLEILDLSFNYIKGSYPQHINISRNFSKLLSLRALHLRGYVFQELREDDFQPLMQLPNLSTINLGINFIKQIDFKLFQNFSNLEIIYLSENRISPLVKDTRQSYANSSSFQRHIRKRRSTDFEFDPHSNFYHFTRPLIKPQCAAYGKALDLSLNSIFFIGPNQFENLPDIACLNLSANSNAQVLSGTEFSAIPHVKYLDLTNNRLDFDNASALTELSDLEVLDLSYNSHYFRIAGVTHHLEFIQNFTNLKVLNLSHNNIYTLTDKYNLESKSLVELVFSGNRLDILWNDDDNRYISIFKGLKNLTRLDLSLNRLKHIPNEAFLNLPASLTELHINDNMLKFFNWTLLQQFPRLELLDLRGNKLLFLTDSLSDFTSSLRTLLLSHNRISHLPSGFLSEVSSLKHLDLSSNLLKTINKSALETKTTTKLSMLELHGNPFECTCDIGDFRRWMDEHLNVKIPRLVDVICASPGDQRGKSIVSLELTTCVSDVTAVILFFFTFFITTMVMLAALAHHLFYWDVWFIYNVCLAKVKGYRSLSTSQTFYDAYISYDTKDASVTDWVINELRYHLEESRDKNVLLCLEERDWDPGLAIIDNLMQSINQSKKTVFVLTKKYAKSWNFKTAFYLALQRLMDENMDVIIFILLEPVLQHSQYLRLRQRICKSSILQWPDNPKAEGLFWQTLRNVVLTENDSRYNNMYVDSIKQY
Experimental: as §1
(§2) HEK-Blue™-cells (Invivogen) overexpressing human TLR7, TLR8 or TLR9 receptors were used for screening inhibitors of these receptors using an inducible SEAP (secreted embryonic alkaline phosphatase) reporter gene under the control of the IFN-β minimal promoter fused to five NF-κB and AP-1-binding sites. Briefly, cells are seeded into Greiner 384 well plates (15000 cells per well for TLR7, 20,000 for TLR8 and 25,000 for TLR9) and then treated with test compounds in DMSO to yield a final dose response concentration range of 0.05 nM-50 μM. After a 30 minute compound pre-treatment at room temperature, the cells are then stimulated with a TLR7 ligand (gardiquimod at a final concentration of 7.5 μM), TLR8 ligand (R848 at a final concentration of 15.9 μM) or TLR9 ligand (ODN2006 at a final concentration of 5 nM) to activate NF-κB and AP-1 which induce the production of SEAP. After a 22 hour incubation at 37° C., 5% CO2, SEAP levels are determined with the addition of HEK-Blue™ Detection reagent (Invivogen), a cell culture medium that allows for detection of SEAP, according to manufacturer's specifications. The percent inhibition is determined as the % reduction in the HEK-Blue signal present in wells treated with agonist plus DMSO alone compared to wells treated with a known inhibitor.

human TLR9 = biological target: T3, human TLR9 (Homo sapiens, UniProt Q9NR96); test: TLR9 inhibition reporter assay (HEK-Blue SEAP); details: HEK-Blue cells overexpressing human TLR9, ODN2006 5 nM, 22 hour incubation
T3 construct: host or cells: HEK-Blue cells
T3 sequence (Q9NR96 26-1032): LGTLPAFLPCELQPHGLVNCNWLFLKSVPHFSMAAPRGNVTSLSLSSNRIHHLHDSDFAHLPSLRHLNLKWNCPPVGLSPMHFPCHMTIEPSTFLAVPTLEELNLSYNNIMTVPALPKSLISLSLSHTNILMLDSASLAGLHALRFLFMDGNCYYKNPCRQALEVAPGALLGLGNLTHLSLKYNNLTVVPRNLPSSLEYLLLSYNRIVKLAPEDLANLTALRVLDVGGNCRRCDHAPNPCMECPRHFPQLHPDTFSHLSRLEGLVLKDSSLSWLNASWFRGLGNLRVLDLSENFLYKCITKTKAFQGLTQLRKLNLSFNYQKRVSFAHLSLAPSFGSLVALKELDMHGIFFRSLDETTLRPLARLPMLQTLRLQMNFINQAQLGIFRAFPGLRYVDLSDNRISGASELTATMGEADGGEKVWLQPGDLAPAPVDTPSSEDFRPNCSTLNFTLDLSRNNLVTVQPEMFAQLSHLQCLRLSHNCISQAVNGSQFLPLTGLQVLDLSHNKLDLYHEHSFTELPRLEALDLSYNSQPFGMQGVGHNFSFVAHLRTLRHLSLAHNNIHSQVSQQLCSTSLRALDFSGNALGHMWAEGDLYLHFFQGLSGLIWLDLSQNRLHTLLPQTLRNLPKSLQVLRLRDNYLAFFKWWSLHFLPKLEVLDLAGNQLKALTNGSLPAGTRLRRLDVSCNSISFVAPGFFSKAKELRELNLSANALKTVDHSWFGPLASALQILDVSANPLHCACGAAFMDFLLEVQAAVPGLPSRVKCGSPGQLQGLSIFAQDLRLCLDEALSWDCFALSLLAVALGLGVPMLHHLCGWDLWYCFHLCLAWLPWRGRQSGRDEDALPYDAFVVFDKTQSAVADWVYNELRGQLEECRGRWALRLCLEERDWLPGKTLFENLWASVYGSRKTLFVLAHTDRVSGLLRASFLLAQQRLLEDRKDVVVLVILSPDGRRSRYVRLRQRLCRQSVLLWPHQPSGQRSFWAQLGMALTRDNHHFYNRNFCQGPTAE
Experimental: as §1, §2

IC50 (human TLR7) | IC50 (human TLR8) | IC50 (human TLR9) | SMILES
8.3 nM | 3.54 nM | – | COc1cc(-c2cc3[nH]c(=O)n(C4CCC(N5CC6(C5)CS(=O)(=O)C6)CC4)c3cc2C(C)C)cn2ncnc12 (single isomer, unassigned) [Example 244, 1-(4-(2,2-dioxido-2-thia-6-azaspiro[3.3]heptan-6-yl)cyclohexyl)-6-isopropyl-5-(8-methoxy-[1,2,4]triazolo[1,5-a]pyridin-6-yl)-1,3-dihydro-2H-benzo[d]imidazol-2-one]
– | 16.7 nM | 5050 nM | Cc1cc2c(cc1-c1cc(C)c3ncnn3c1)[nH]c(=O)n2[C@@H]1CCCN(CCC(C)C)C1 [Example 38, (R)-1-(1-isopentylpiperidin-3-yl)-6-methyl-5-(8-methyl-[1,2,4]triazolo[1,5-a]pyridin-6-yl)-1,3-dihydro-2H-benzo[d]imidazol-2-one]
5.55 nM | 24.5 nM | – | Cc1c(-c2cc3[nH]c(=O)n([C@@H]4CCCN(CC(C)(C)C)C4)c3cc2C(C)C)cn2ncnc2c1C [Example 152, (R)-5-(7,8-dimethyl-[1,2,4]triazolo[1,5-a]pyridin-6-yl)-6-isopropyl-1-(1-neopentylpiperidin-3-yl)-1,3-dihydro-2H-benzo[d]imidazol-2-one]
3.38 nM | 8 nM | – | CCc1cc2c(cc1-c1cc(OC)c3ncnn3c1)[nH]c(=O)n2[C@@H]1CCCN(C(C)CC)C1 (stereo partly drawn) [Example 176, 1-((3R)-1-(sec-butyl)piperidin-3-yl)-6-ethyl-5-(8-methoxy-[1,2,4]triazolo[1,5-a]pyridin-6-yl)-1,3-dihydro-2H-benzo[d]imidazol-2-one]
17.1 nM | 19.3 nM | – | CCc1cc2c(cc1-c1cc(OC)c3ncnn3c1)[nH]c(=O)n2[C@@H]1CCCN(C2CCCOC2)C1 (stereo partly drawn) [Example 214, 6-ethyl-5-(8-methoxy-[1,2,4]triazolo[1,5-a]pyridin-6-yl)-1-((3R)-1-(tetrahydro-2H-pyran-3-yl)piperidin-3-yl)-1,3-dihydro-2H-benzo[d]imidazol-2-one]
